Test system: MV-4-11 cells
Test: Gene expression microarray analysis (Affymetrix PrimeView) and GSEA
Assay type: cell-based, human
Set-up: RFU PODN (11730768_x_at) / Fold change /veh PODN (11730768_x_at) / RFU LINC00158 (11744669_a_at) / Fold change /veh LINC00158 (11744669_a_at) / RFU DUSP10 (11751237_a_at) / Fold change /veh DUSP10 (11751237_a_at) / RFU ID3 (11757404_x_at) / Fold change /veh ID3 (11757404_x_at) / RFU PLEKHG5 (11737974_s_at) / Fold change /veh PLEKHG5 (11737974_s_at) / RFU LRRC4B (11730491_at) / Fold change /veh LRRC4B (11730491_at) / RFU GIMAP4 (11747438_a_at) / Fold change /veh GIMAP4 (11747438_a_at) / RFU KRT8 (11758183_x_at) / Fold change /veh KRT8 (11758183_x_at) / RFU CNN1 (11734310_a_at) / Fold change /veh CNN1 (11734310_a_at) / RFU VPS37D (11726825_at) / Fold change /veh VPS37D (11726825_at) / RFU C10orf10 (11716522_x_at) / Fold change /veh C10orf10 (11716522_x_at) / RFU KIR2DL2 /// KIR2DL4 /// KIR2DL5A /// KIR2DL5B /// KIR2DS1 /// KIR2DS2 /// KIR2DS3 /// KIR2DS4 /// KIR3DL3 /// KIR3DL3 /// KIR3DS1 (11738374_at) / Fold change /veh KIR2DL2 /// KIR2DL4 /// KIR2DL5A /// KIR2DL5B /// KIR2DS1 /// KIR2DS2 /// KIR2DS3 /// KIR2DS4 /// KIR3DL3 /// KIR3DL3 /// KIR3DS1 (11738374_at) / RFU C1QL1 (11718748_at) / Fold change /veh C1QL1 (11718748_at) / RFU TMPRSS4 (11747572_a_at) / Fold change /veh TMPRSS4 (11747572_a_at) / RFU HAMP (11756126_x_at) / Fold change /veh HAMP (11756126_x_at) / RFU RNFT2 (11725882_a_at) / Fold change /veh RNFT2 (11725882_a_at) / RFU NR4A2 (11747474_a_at) / Fold change /veh NR4A2 (11747474_a_at) / RFU ABCC12 (11746883_a_at) / Fold change /veh ABCC12 (11746883_a_at) / RFU TMEM136 (11760407_x_at) / Fold change /veh TMEM136 (11760407_x_at) / RFU CLDN22 /// WWC2 (11732394_at) / Fold change /veh CLDN22 /// WWC2 (11732394_at) / RFU HLA-DPB1 (11760878_x_at) / Fold change /veh HLA-DPB1 (11760878_x_at) / RFU SPINT1 (11716480_a_at) / Fold change /veh SPINT1 (11716480_a_at) / RFU GAP43 (11754022_s_at) / Fold change /veh GAP43 (11754022_s_at) / RFU A4GNT (11735810_at) / Fold change /veh A4GNT (11735810_at) / RFU PRB3 (11715151_x_at) / Fold change /veh PRB3 (11715151_x_at) / RFU TUBB4B (11761932_at) / Fold change /veh TUBB4B (11761932_at) / RFU CAPN14 (11732068_a_at) / Fold change /veh CAPN14 (11732068_a_at) / RFU TMCC2 (11721928_a_at) / Fold change /veh TMCC2 (11721928_a_at) / RFU IRGQ (11745062_a_at) / Fold change /veh IRGQ (11745062_a_at) / RFU FAM174B (11720279_a_at) / Fold change /veh FAM174B (11720279_a_at) / RFU TMPRSS4 (11748680_a_at) / Fold change /veh TMPRSS4 (11748680_a_at) / RFU FAM212B (11763350_a_at) / Fold change /veh FAM212B (11763350_a_at) / RFU PLEKHG5 (11743358_a_at) / Fold change /veh PLEKHG5 (11743358_a_at) / RFU ZSCAN30 (11745921_a_at) / Fold change /veh ZSCAN30 (11745921_a_at) / RFU CMKLR1 (11741424_a_at) / Fold change /veh CMKLR1 (11741424_a_at) / RFU LOC101060620 /// MAPK8IP1 (11723275_at) / Fold change /veh LOC101060620 /// MAPK8IP1 (11723275_at) / RFU SPTSSB (11747773_x_at) / Fold change /veh SPTSSB (11747773_x_at) / RFU PRSS12 (11739890_at) / Fold change /veh PRSS12 (11739890_at) / RFU BIN1 (11741810_x_at) / Fold change /veh BIN1 (11741810_x_at) / RFU WNT11 (11732464_a_at) / Fold change /veh WNT11 (11732464_a_at) / RFU C10orf10 (11716521_a_at) / Fold change /veh C10orf10 (11716521_a_at) / RFU C5orf56 (11738089_at) / Fold change /veh C5orf56 (11738089_at) / RFU CYB561 (11721691_x_at) / Fold change /veh CYB561 (11721691_x_at) / RFU ANKRD19P (11752326_a_at) / Fold change /veh ANKRD19P (11752326_a_at) / RFU OR2T12 /// OR2T33 /// OR2T8 (11738714_s_at) / Fold change /veh OR2T12 /// OR2T33 /// OR2T8 (11738714_s_at) / RFU VCAN (11748164_a_at) / Fold change /veh VCAN (11748164_a_at) / RFU JSRP1 (11732532_at) / Fold change /veh JSRP1 (11732532_at) / RFU KRTAP10-11 (11738290_x_at) / Fold change /veh KRTAP10-11 (11738290_x_at) / RFU MYO3A (11730013_a_at) / Fold change /veh MYO3A (11730013_a_at) / RFU EBF3 (11725865_a_at) / Fold change /veh EBF3 (11725865_a_at) / RFU CAMK2N1 (11719241_x_at) / Fold change /veh CAMK2N1 (11719241_x_at) / RFU C5orf56 (11738088_a_at) / Fold change /veh C5orf56 (11738088_a_at) / RFU OLFML3 (11715873_a_at) / Fold change /veh OLFML3 (11715873_a_at) / RFU LOC100653217 /// NTM (11731650_a_at) / Fold change /veh LOC100653217 /// NTM (11731650_a_at) / RFU MAPK11 (11762145_a_at) / Fold change /veh MAPK11 (11762145_a_at) / RFU FIZ1 (11724087_x_at) / Fold change /veh FIZ1 (11724087_x_at) / RFU OASL (11726364_x_at) / Fold change /veh OASL (11726364_x_at) / RFU SOX15 (11748057_x_at) / Fold change /veh SOX15 (11748057_x_at) / RFU CD79A (11719716_a_at) / Fold change /veh CD79A (11719716_a_at) / RFU HIST1H1D (11736915_at) / Fold change /veh HIST1H1D (11736915_at) / RFU CASKIN2 (11723855_a_at) / Fold change /veh CASKIN2 (11723855_a_at) / RFU LOC730098 (11760151_x_at) / Fold change /veh LOC730098 (11760151_x_at) / RFU OR4N2 (11742367_at) / Fold change /veh OR4N2 (11742367_at) / RFU PRRT2 (11749266_a_at) / Fold change /veh PRRT2 (11749266_a_at) / RFU SNX32 (11753110_a_at) / Fold change /veh SNX32 (11753110_a_at) / RFU CDHR5 (11726645_a_at) / Fold change /veh CDHR5 (11726645_a_at) / RFU RCAN1 (11760418_a_at) / Fold change /veh RCAN1 (11760418_a_at) / RFU FAM167A (11723789_a_at) / Fold change /veh FAM167A (11723789_a_at) / RFU FAM26E (11764081_at) / Fold change /veh FAM26E (11764081_at) / RFU ISYNA1 (11749810_s_at) / Fold change /veh ISYNA1 (11749810_s_at) / RFU ACY1 (11761880_at) / Fold change /veh ACY1 (11761880_at) / RFU 11764098_at / Fold change /veh 11764098_at / RFU SAMD14 (11745864_x_at) / Fold change /veh SAMD14 (11745864_x_at) / RFU NPB (11741838_a_at) / Fold change /veh NPB (11741838_a_at) / RFU TMPRSS6 (11731388_a_at) / Fold change /veh TMPRSS6 (11731388_a_at) / RFU KRTAP10-2 (11738614_at) / Fold change /veh KRTAP10-2 (11738614_at) / RFU ARHGAP8 /// PRR5-ARHGAP8 (11727945_x_at) / Fold change /veh ARHGAP8 /// PRR5-ARHGAP8 (11727945_x_at) / RFU KRTAP5-7 /// NADSYN1 (11734609_at) / Fold change /veh KRTAP5-7 /// NADSYN1 (11734609_at) / RFU RASL12 (11751679_a_at) / Fold change /veh RASL12 (11751679_a_at) / RFU CDKN2B (11736163_a_at) / Fold change /veh CDKN2B (11736163_a_at) / RFU PRF1 (11729649_at) / Fold change /veh PRF1 (11729649_at) / RFU, ZNF638 /// ZNF638-IT1 / Fold change vs veh, ZNF638 /// ZNF638-IT1 / RFU, PANK3 / Fold change vs veh, PANK3 / RFU, SH3YL1 / Fold change vs veh, SH3YL1 / RFU, ZEB2 / Fold change vs veh, ZEB2 / RFU, NRIP1 / Fold change vs veh, NRIP1 / RFU, PTTG1IP / Fold change vs veh, PTTG1IP / RFU, CAPN2 / Fold change vs veh, CAPN2 / RFU, MED14 / Fold change vs veh, MED14 / RFU, SNORA58 / Fold change vs veh, SNORA58 / RFU, C1orf63 / Fold change vs veh, C1orf63 / RFU, LRRFIP1 / Fold change vs veh, LRRFIP1 / RFU, NDUFAF7 / Fold change vs veh, NDUFAF7 / RFU, SLC12A2 / Fold change vs veh, SLC12A2 / RFU, IBTK / Fold change vs veh, IBTK / RFU, ESF1 / Fold change vs veh, ESF1 / Fold change vs veh, TMEM50B / RFU, TAOK1 / Fold change vs veh, TAOK1 / RFU, ACBD3 / Fold change vs veh, ACBD3 / RFU, TMA16 / Fold change vs veh, TMA16 / RFU, RWDD3 / Fold change vs veh, RWDD3 / RFU, BCAT1 / Fold change vs veh, BCAT1 / RFU, EDEM3 / Fold change vs veh, EDEM3 / RFU, TMEM33 / Fold change vs veh, TMEM33 / RFU, WDR75 / Fold change vs veh, WDR75 / RFU, AHCTF1 / Fold change vs veh, AHCTF1 / RFU, TFRC / Fold change vs veh, TFRC / RFU, ZDHHC17 / Fold change vs veh, ZDHHC17 / RFU, NOM1 / Fold change vs veh, NOM1 / RFU, ARL8B / Fold change vs veh, ARL8B / RFU, ZBTB11 / Fold change vs veh, ZBTB11 / RFU, TAMM41 / Fold change vs veh, TAMM41 / RFU, KIAA1704 /// LOC100996395 / Fold change vs veh, KIAA1704 /// LOC100996395 / RFU, ING1 / Fold change vs veh, ING1 / RFU, TRMT61B / Fold change vs veh, TRMT61B / RFU, FUBP3 / Fold change vs veh, FUBP3 / RFU, TP53 / Fold change vs veh, TP53 / RFU, TNKS2 / Fold change vs veh, TNKS2 / RFU, ZFP14 / Fold change vs veh, ZFP14 / RFU, ACTR2 / Fold change vs veh, ACTR2 / RFU, PPP3R1 / Fold change vs veh, PPP3R1 / RFU, PIK3R1 / Fold change vs veh, PIK3R1 / RFU, HNRNPA1 / Fold change vs veh, HNRNPA1 / RFU, RNF170 / Fold change vs veh, RNF170 / RFU, ZNF28 / Fold change vs veh, ZNF28 / RFU, RNGTT / Fold change vs veh, RNGTT / RFU, OGT / Fold change vs veh, OGT / RFU, BRD1 / Fold change vs veh, BRD1 / RFU, MARS / Fold change vs veh, MARS / RFU, ZNF655 / Fold change vs veh, ZNF655 / RFU, FAHD1 / Fold change vs veh, FAHD1 / RFU, BDP1 / Fold change vs veh, BDP1 / RFU, LRRCC1 / Fold change vs veh, LRRCC1 / RFU, ARID1A / Fold change vs veh, ARID1A / RFU, ZNF146 / Fold change vs veh, ZNF146 / RFU, ZNF330 / Fold change vs veh, ZNF330 / RFU, GPN3 / Fold change vs veh, GPN3 / RFU, C9orf123 / Fold change vs veh, C9orf123 / RFU, N4BP2L2 / Fold change vs veh, N4BP2L2 / RFU, ARFIP1 / Fold change vs veh, ARFIP1 / RFU, FAM179B / Fold change vs veh, FAM179B / RFU, BCL10 / Fold change vs veh, BCL10 / RFU, UHRF1BP1L / Fold change vs veh, UHRF1BP1L / RFU, BET1 / Fold change vs veh, BET1 / RFU, CNOT2 / Fold change vs veh, CNOT2 / RFU, ZNF268 / Fold change vs veh, ZNF268 / Fold change vs veh, ZNF507 / RFU, DGCR2 / Fold change vs veh, DGCR2 / RFU, WDSUB1 / Fold change vs veh, WDSUB1 / Fold change vs veh, HSP90B1 /// MIR3652 / RFU, ADSS / Fold change vs veh, ADSS / RFU, GK / Fold change vs veh, GK / RFU, ZNF148 / Fold change vs veh, ZNF148 / RFU, TAF9 / Fold change vs veh, TAF9 / RFU, SLC1A5 / Fold change vs veh, SLC1A5 / RFU, SLMO2 / Fold change vs veh, SLMO2 / RFU, ABCC4 / Fold change vs veh, ABCC4 / RFU, LOC101060439 /// RAP1B / Fold change vs veh, LOC101060439 /// RAP1B / RFU, RFX7 / Fold change vs veh, RFX7 / RFU, GTPBP10 / Fold change vs veh, GTPBP10 / RFU, CNEP1R1 / Fold change vs veh, CNEP1R1 / RFU, BIVM-ERCC5 /// ERCC5 / Fold change vs veh, BIVM-ERCC5 /// ERCC5 / RFU, ILF3 / Fold change vs veh, ILF3 / RFU 11762660_at / Fold change /veh 11762660_at / RFU VCAN (11757783_s_at) / Fold change /veh VCAN (11757783_s_at) / RFU DDX43 (11728927_at) / Fold change /veh DDX43 (11728927_at) / RFU KRT8 (11758188_x_at) / Fold change /veh KRT8 (11758188_x_at) / RFU NKD1 (11759106_at) / Fold change /veh NKD1 (11759106_at) / RFU SRD5A1 (11742802_a_at) / Fold change /veh SRD5A1 (11742802_a_at) / RFU TPSAB1 /// TPSB2 (11721975_s_at) / Fold change /veh TPSAB1 /// TPSB2 (11721975_s_at) / RFU GSTM3 (11746129_a_at) / Fold change /veh GSTM3 (11746129_a_at) / RFU IL23R (11737362_x_at) / Fold change /veh IL23R (11737362_x_at) / RFU TMEM51 (11727254_a_at) / Fold change /veh TMEM51 (11727254_a_at) / RFU PIWIL2 (11732686_x_at) / Fold change /veh PIWIL2 (11732686_x_at) / RFU ORM1 (11744905_x_at) / Fold change /veh ORM1 (11744905_x_at) / RFU CCDC152 (11743942_at) / Fold change /veh CCDC152 (11743942_at) / RFU ECM1 (11717891_a_at) / Fold change /veh ECM1 (11717891_a_at) / RFU IL23R (11748794_a_at) / Fold change /veh IL23R (11748794_a_at) / RFU TNFAIP8L3 (11732012_x_at) / Fold change /veh TNFAIP8L3 (11732012_x_at) / RFU MBOAT4 (11741988_at) / Fold change /veh MBOAT4 (11741988_at) / RFU 11764193_at / Fold change /veh 11764193_at / RFU TMEM53 (11763286_at) / Fold change /veh TMEM53 (11763286_at) / RFU MAGEB2 (11727129_at) / Fold change /veh MAGEB2 (11727129_at) / RFU TMEM200A (11744735_a_at) / Fold change /veh TMEM200A (11744735_a_at) / RFU CCDC152 (11751479_a_at) / Fold change /veh CCDC152 (11751479_a_at) / RFU FAM211A (11726209_a_at) / Fold change /veh FAM211A (11726209_a_at) / RFU RGS16 (11746705_a_at) / Fold change /veh RGS16 (11746705_a_at) / RFU VCAN (11755009_s_at) / Fold change /veh VCAN (11755009_s_at) / RFU RHOB (11743442_s_at) / Fold change /veh RHOB (11743442_s_at) / RFU RGS16 (11720943_a_at) / Fold change /veh RGS16 (11720943_a_at) / RFU RGS16 (11720944_at) / Fold change /veh RGS16 (11720944_at) / RFU, VPS4B / Fold change vs veh, VPS4B / RFU, CREB1 / Fold change vs veh, CREB1 / RFU, DNAJC13 / Fold change vs veh, DNAJC13 / RFU, GNAQ / Fold change vs veh, GNAQ / RFU, CDK5R1 / Fold change vs veh, CDK5R1 / RFU, ZRANB3 / Fold change vs veh, ZRANB3 / RFU, CUL4A / Fold change vs veh, CUL4A / RFU, CCNY / Fold change vs veh, CCNY / RFU, UFL1 / Fold change vs veh, UFL1 / RFU, COG3 / Fold change vs veh, COG3 / RFU, DIAPH2 / Fold change vs veh, DIAPH2 / RFU, SKA2 / Fold change vs veh, SKA2 / RFU, AFF3 / Fold change vs veh, AFF3 / RFU, LMF1 / Fold change vs veh, LMF1 / RFU, IPO11 / Fold change vs veh, IPO11 / RFU, DFFB / Fold change vs veh, DFFB / RFU, FOXP1 / Fold change vs veh, FOXP1 / RFU, CARD8 / Fold change vs veh, CARD8 / RFU, STRN3 / Fold change vs veh, STRN3 / RFU, ADK / Fold change vs veh, ADK / RFU, RASSF2 / Fold change vs veh, RASSF2 / RFU, WIPF1 / Fold change vs veh, WIPF1 / RFU, LARP1B / Fold change vs veh, LARP1B / RFU, RASA1 / Fold change vs veh, RASA1 / RFU, RB1 / Fold change vs veh, RB1 / RFU, PPFIA1 / Fold change vs veh, PPFIA1 / RFU, MAT2A / Fold change vs veh, MAT2A / RFU, CCT5 / Fold change vs veh, CCT5 / RFU, WDR92 / Fold change vs veh, WDR92 / RFU, CUX1 / Fold change vs veh, CUX1 / RFU, TTC7A / Fold change vs veh, TTC7A / RFU, TMEM135 / Fold change vs veh, TMEM135 / RFU, DEPTOR / Fold change vs veh, DEPTOR / RFU, CPM / Fold change vs veh, CPM / RFU, DNAJB6 / Fold change vs veh, DNAJB6 / RFU, CACNA2D3 / Fold change vs veh, CACNA2D3 / RFU, DTX4 / Fold change vs veh, DTX4 / RFU, TFCP2 / Fold change vs veh, TFCP2 / RFU, GMCL1 /// GMCL1P1 / Fold change vs veh, GMCL1 /// GMCL1P1 / RFU, AEBP2 / Fold change vs veh, AEBP2 / RFU, SNHG1 /// SNORD22 /// SNORD25 /// SNORD26 /// SNORD27 /// SNORD28 /// SNORD29 /// SNORD31 / Fold change vs veh, SNHG1 /// SNORD22 /// SNORD25 /// SNORD26 /// SNORD27 /// SNORD28 /// SNORD29 /// SNORD31 / Fold change (Aza/veh), C12orf56 (ProbeSet 11735607_a_at) / Fold change (ACY-1035/veh), C12orf56 (ProbeSet 11735607_a_at) / Fold change (Aza/veh), FGFR1OP (ProbeSet 11751329_s_at) / Fold change (ACY-1035/veh), FGFR1OP (ProbeSet 11751329_s_at) / Fold change (Aza/veh), VPS36 (ProbeSet 11739960_a_at) / Fold change (ACY-1035/veh), VPS36 (ProbeSet 11739960_a_at) / RFU SYPL1 (11715823_x_at) / Fold change /veh SYPL1 (11715823_x_at) / RFU IGFBP7 (11715501_s_at) / Fold change /veh IGFBP7 (11715501_s_at) / RFU REEP3 (11722064_at) / Fold change /veh REEP3 (11722064_at) / RFU IGLL1 (11728026_x_at) / Fold change /veh IGLL1 (11728026_x_at): dose or concentration left out as unconfirmed
Conditions: MV-4-11 cells, 48 hours

## Nc1ccc(-c2cccs2)cc1NC(=O)c1ccc2c(c1)cc(C1CC1)n2CCN1CCOCC1 [ACY-1035]
  Fold change /veh PRRT2 (11749266_a_at): 1.00

— paper PMC5218480 (PLoS ONE, 2017)
